Reference: ChEMBL document CHEMBL5465560, “Selectivity Literature for EUbOPEN Chemogenomic Library” (2024)
Blank lines part the entries; values can stand above or below the compound they belong to.

What was measured:
[1] = molecular target: Serine/threonine-protein kinase 24 (Homo sapiens) (UniProt Q9Y6E0); assay: Selectivity interaction (SelectScreen profiling (Invitrogen)) EUB0000607a STK24; conditions: at 2 µM
[2] = molecular target: T1, Cytoplasmic tyrosine-protein kinase BMX (Homo sapiens) (UniProt P51813); assay: Selectivity interaction (Upstate Kinase Profiler service (Millipore)) EUB0000056c BMX; conditions: at 1 µM
T1 sequence (whole entry): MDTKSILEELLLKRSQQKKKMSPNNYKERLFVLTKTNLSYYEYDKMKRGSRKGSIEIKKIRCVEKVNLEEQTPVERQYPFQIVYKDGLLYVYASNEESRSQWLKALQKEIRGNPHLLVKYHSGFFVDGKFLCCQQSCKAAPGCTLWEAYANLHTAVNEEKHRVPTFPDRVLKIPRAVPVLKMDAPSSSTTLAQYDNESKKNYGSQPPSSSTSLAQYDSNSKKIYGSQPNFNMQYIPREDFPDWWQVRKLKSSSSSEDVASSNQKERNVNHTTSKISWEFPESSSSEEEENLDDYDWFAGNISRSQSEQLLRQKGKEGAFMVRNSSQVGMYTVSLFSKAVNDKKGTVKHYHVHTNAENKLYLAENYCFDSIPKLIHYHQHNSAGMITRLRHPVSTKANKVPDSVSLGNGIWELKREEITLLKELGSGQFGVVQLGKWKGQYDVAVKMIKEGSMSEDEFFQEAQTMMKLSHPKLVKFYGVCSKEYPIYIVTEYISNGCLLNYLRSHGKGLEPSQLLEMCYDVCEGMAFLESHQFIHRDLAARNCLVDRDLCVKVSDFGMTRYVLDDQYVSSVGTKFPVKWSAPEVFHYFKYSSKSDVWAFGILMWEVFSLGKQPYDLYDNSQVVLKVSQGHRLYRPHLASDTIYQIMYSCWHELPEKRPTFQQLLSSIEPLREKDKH

[3] = molecular target: T2, Serine/threonine-protein kinase DCLK3 (Homo sapiens) (UniProt Q9C098); assay: Selectivity interaction (KinomeScan (DiscoverX)) EUB0000595a DCLK3; conditions: at 10 µM
T2 sequence (whole entry): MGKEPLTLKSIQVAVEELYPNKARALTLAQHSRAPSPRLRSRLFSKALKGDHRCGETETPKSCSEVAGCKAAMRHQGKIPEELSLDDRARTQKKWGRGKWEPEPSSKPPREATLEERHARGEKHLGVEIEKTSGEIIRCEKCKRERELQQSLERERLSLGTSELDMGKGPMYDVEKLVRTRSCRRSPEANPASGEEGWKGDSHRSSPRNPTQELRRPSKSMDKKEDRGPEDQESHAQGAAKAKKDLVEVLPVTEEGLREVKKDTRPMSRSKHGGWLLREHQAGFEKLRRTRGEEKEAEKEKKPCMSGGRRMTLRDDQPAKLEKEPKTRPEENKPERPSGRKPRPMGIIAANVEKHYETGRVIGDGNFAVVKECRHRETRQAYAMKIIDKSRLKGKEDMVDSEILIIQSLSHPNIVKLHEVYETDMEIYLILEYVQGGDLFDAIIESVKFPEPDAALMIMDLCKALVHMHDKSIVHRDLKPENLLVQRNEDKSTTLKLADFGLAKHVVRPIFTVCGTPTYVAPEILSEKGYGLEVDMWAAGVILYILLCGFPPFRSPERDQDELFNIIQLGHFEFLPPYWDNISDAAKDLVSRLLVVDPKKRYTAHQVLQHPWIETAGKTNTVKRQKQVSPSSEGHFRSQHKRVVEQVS

[4] = molecular target: T3, Dual serine/threonine and tyrosine protein kinase (Homo sapiens) (UniProt Q6XUX3); assay: Selectivity interaction (KinomeScan (DiscoverX)) EUB0000045b DSTYK
T3 sequence (whole entry): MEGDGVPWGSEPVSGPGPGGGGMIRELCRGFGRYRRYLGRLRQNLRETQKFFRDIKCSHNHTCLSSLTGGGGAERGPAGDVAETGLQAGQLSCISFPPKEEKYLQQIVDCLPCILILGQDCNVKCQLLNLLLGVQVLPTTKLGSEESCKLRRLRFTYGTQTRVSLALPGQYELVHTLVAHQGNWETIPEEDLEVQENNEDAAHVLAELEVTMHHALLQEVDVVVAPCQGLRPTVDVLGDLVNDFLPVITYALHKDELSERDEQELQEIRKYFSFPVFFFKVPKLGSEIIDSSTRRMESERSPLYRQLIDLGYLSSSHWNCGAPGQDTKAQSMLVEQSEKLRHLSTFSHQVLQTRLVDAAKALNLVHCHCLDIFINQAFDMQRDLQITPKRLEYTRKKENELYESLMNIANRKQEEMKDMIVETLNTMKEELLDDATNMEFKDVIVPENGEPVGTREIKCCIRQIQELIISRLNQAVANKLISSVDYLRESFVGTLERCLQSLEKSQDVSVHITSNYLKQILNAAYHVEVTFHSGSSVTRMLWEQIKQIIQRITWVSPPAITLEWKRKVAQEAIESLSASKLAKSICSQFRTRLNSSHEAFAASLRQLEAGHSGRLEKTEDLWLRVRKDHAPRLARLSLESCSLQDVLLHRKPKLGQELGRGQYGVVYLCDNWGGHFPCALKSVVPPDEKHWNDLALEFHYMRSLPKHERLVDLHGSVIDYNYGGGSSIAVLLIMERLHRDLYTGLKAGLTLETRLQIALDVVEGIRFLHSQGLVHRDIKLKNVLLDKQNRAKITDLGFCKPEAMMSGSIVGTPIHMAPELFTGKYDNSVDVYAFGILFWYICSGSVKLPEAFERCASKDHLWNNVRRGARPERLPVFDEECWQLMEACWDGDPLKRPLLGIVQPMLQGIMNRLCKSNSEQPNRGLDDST

[5] = molecular target: T4, Mitogen-activated protein kinase kinase kinase 7 (Homo sapiens) (UniProt O43318); assay: Selectivity interaction (ActivX KiNativ screen (ex vivo kinase selectivity in human PBMCs)) EUB0001619a MAP3K7; assay type: cell-based; conditions: PBMC, at 1 µM
T4 sequence (whole entry): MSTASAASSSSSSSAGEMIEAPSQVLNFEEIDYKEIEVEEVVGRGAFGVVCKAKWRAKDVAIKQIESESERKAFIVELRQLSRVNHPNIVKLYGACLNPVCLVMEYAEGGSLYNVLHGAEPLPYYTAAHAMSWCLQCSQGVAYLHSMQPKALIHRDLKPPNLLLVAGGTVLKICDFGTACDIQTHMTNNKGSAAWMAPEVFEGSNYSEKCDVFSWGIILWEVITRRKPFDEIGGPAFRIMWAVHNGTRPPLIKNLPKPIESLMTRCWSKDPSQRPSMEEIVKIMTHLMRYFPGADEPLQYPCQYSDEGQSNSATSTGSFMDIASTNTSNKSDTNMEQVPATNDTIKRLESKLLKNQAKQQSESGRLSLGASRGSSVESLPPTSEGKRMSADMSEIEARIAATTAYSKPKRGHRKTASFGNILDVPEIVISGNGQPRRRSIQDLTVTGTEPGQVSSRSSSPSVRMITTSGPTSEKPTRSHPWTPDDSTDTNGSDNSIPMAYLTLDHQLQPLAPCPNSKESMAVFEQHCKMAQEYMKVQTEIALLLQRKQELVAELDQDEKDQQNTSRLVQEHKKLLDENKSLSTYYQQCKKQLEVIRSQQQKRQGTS

Serine/threonine-protein kinase 24 (Homo sapiens), sequence (Q9Y6E0 whole entry, looked up): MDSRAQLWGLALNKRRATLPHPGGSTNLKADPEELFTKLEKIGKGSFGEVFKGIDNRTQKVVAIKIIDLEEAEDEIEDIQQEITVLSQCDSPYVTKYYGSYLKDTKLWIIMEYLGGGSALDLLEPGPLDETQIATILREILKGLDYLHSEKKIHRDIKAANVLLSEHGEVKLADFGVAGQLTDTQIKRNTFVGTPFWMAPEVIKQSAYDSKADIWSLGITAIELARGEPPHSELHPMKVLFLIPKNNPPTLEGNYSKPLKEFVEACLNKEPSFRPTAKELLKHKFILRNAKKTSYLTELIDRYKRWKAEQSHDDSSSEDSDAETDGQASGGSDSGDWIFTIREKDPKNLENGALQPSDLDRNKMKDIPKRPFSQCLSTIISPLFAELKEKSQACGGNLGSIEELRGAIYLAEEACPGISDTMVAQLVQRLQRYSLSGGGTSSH

SMILES: CNC(=O)Nc1ccc(-c2nc(N3CC4CCC(C3)O4)c3cnn(C4CCC5(CC4)OCCO5)c3n2)cc1
% of inhibition [1]: -1%

% of inhibition [2]: 4%
SMILES: Cc1ccc(-c2ccc3c(ccc4sc5c(c43)NC[C@@H](C)NC5=O)n2)cn1

SMILES: COCC(=O)NC/C=C/c1ccc2ncnc(Nc3ccc(Oc4ccc(C)nc4)c(C)c3)c2c1 [CP-724714]
% of control [3]: 83%

SMILES: C=CC(=O)Nc1cc(-n2c(=O)ccc3cnc4ccc(-c5ccc(NS(C)(=O)=O)cc5)cc4c32)ccc1C
% of control ([4]; at 1 µM): 100%
% of control ([4]; at 10 µM): 100%

SMILES: N#Cc1cccc(-c2c[nH]c3ncnc(N4CCOCC4)c23)c1
% of inhibition [5]: 21%
